# Assay results reported in article PMC12608305, “Rapid Hemi-Synthesis of Multifunctional Amphiphilic Derivatives Based on Polyphenolic Extractives: Surface Activity, Antioxidant and Antibacterial Properties” (Molecules, 2025).
# Where two headings read alike, the source gives them in different places.
# How the values were obtained:
# [1] = Water solubility by saturating water, lyophilizing and weighing; assay type: physicochemical; conditions: thermodynamic from solid; saturated water
# Text: Solubility in water was expressed in mol/L (M).
# [2] = Radical scavenging activity by the DPPH method; assay type: biochemical; conditions: DPPH 10^−4 M in methanol, triplicate
# Experimental: This method measures the antioxidant capacity of a compound to reduce the purple-colored DPPH radical solution to yellow-colored DPPH-H. DPPH solution was prepared at a concentration of 10^−4 M in methanol. The IC50 was calculated using the formula IC50 = (y − b)/a obtained from the equation of the line y = ax + b where a is the directing coefficient and b the y-intercept. Each measurement was conducted in triplicate.
# [3] = Surface tension in water by the Wilhelmy plate method (surfactant properties); assay type: physicochemical; conditions: 25 °C; for Minimum occupied area per molecule at the air–water interface (σ): calculated from curve log C vs. γ; for Critical aggregation concentration (CAC): from curve log C vs. γ
# Experimental: The surface tension (γ) in water was determined using the Wilhelmy plate method at 25 °C. […] With this curve, parameters such as critical aggregation concentration (CAC) and minimum occupied area per molecule at the air–water interface (σ) were calculated, as well as the surface tension that remains constant from CAC (γw).
# Surface tension (γ) was obtained by the Wilhelmy plate method, using a Force Tensiometer KRUSS at 25 °C. […] The curve log C vs. γ allowed us to calculate critical aggregate concentration (CAC), minimum occupied area per molecule at the air–water interface (σ) and the surface tension (γw) that remains constant after the CAC was obtained. Each measurement was conducted in triplicate.
# Escherichia coli = test: Antibacterial activity by resazurin reduction test; assay type: cell-based; conditions: fluorescence over 72 h, compounds in DMSO, triplicate, read-out: Antibacterial Activity Against E. coli: IC50
# Text: These properties are usually studied by dilution and disk diffusion assay. The resazurin test is another method that can be used for measuring antibacterial activity. It is a protocol based on cell viability assays. […] This process leads to the formation of a pink fluorescent substance called resorufin. This reduction allows bacterial metabolic activity to be measured directly by measuring fluorescence. This is used to determine the antibacterial activity of the compounds being tested, using a fluorescence microplate reader. The lower the resorufin production, the lower the measured fluorescence and the higher the antibacterial activity.
# Resazurin is a blue colorant that reduces to the fluorescent pink resorufin when metabolized by the cells from bacterial respiratory chains. The metabolic activity of the cells was measured by reading the fluorescence over 72 h using a BioTek FLx800 Fluorescence Microplate Reader.
# Strains of Escherichia coli were cultured for 12 h on solid LB medium (Luria–Bertani) at 35 °C. The next day, some colonies were taken and placed in a nutrient broth and incubated at 35 °C until an optical density of 0.4 was obtained. […] A control with ethoxyethanol was performed. A positive control to verify the growth of the bacteria in the absence of catechin or hemi-synthesis compound was performed as well. The IC50 was calculated using the formula IC50 = (y − b)/a obtained from the equation of the line y = ax + b, where a is the directing coefficient and b the y-intercept. Each measurement was conducted in triplicate.
# E. coli = test system: E. coli; design: method as in PMID 743641; conditions: cited from earlier work
# [4] = DPPH; cited from earlier work
# [5] = design: method as in doi:10.1016/j.fluid.2014.09.013; conditions: anhydrous catechin; cited from earlier work
SMILES,solubility [1] [µM],Surface tension from CAC (γw) [3] [mN/m],Minimum occupied area per molecule at the air–water interface (σ) [3] [Å^2/molecule],Critical aggregation concentration (CAC) [3] [µM],Radical Scavenging Activity: IC50 [4] [µg/mL],further results
"Cc1cc(C(C)(C)C)c(O)c(C(C)(C)C)c1 [BHT, Butylated hydroxytoluene]",,,,,12.8 ± 0.08,effect on growth of E. coli (E. coli; regardless of the concentration): fails to decrease the growth of E. coli
COc1cc(C[C@@H](CO)[C@H](CO)Cc2ccc(O)c(OC)c2)ccc1O [secoisolariciresinol],,,,,9.39 ± 0.01,
O=C(O)/C=C/c1ccc(O)c(O)c1 [caffeic acid],,,,,10.64,
O=C1c2c(O)cc(O)cc2OC(c2ccc(O)c(O)c2)C1O (stereo not shown) [taxifolin],,,,,10.06 ± 1.08,
"COc1ccc(O)c(C(C)(C)C)c1 [BHA, Butylated hydroxyanisole]",,,,,21.3 ± 0.12,growth of E. coli (E. coli; at concentrations above 100 μg/mL): 33%
O=C(O)c1cc(O)c(O)c(O)c1 [gallic acid],,,,,2.04 ± 0.03,
"Oc1cc(O)c2c(c1)O[C@H](c1ccc(O)c(O)c1)[C@@H](O)C2 [Catechin, (+)-catechin, reference compound]",,,,,,Radical Scavenging Activity: IC50 [2]: 2.43 ± 0.03 µg/mL; Water Solubility [5]: 0.0157 M; IC50 (Escherichia coli): 36 ± 2 mM
O=C(OC[C@H]1O[C@@H](OC(=O)c2cc(O)c(O)c(OC(=O)c3cc(O)c(O)c(O)c3)c2)[C@H](OC(=O)c2cc(O)c(O)c(OC(=O)c3cc(O)c(O)c(O)c3)c2)[C@@H](OC(=O)c2cc(O)c(O)c(OC(=O)c3cc(O)c(O)c(O)c3)c2)[C@@H]1OC(=O)c1cc(O)c(O)c(OC(=O)c2cc(O)c(O)c(O)c2)c1)c1cc(O)c(O)c(OC(=O)c2cc(O)c(O)c(O)c2)c1 [tannic acid],,,,,23.65,
O=c1c(O)c(-c2ccc(O)c(O)c2)oc2cc(O)cc(O)c12 [quercetin],,,,,1.59 ± 0.02,

# More lines, main results first:
solubility [1] [µM],Surface tension from CAC (γw) [3] [mN/m],Minimum occupied area per molecule at the air–water interface (σ) [3] [Å^2/molecule],Critical aggregation concentration (CAC) [3] [µM],SMILES,Radical Scavenging Activity: IC50 [4] [µg/mL],further results
1300,35,8,100,"CCCCCCCC(=O)N[C@@H](C)C(=O)OC1Cc2c(O)cc(O)cc2OC1c1ccc(O)c(O)c1 (stereo partly shown) [7a, 2-(3,4-Dihydroxyphenyl)-5,7-dihydroxychroman-3-yl octanoylalaninate]",,Radical Scavenging Activity: IC50 [2]: 2.06 ± 0.04 µg/mL; IC50 (Escherichia coli): 32 ± 3 mM
22,32,45,2,"CCCCCCCCCCCCCCCC(=O)N[C@@H](C)C(=O)OC1Cc2c(O)cc(O)cc2OC1c1ccc(O)c(O)c1 (stereo partly shown) [7d, 2-(3,4-Dihydroxyphenyl)-5,7-dihydroxychroman-3-yl hexadecanoylalaninate]",,Radical Scavenging Activity: IC50 [2]: 26.73 ± 0.43 µg/mL
360,32,10,50,"CCCCCCCCCCCC(=O)N[C@@H](C)C(=O)OC1Cc2c(O)cc(O)cc2OC1c1ccc(O)c(O)c1 (stereo partly shown) [7b, 2-(3,4-Dihydroxyphenyl)-5,7-dihydroxychroman-3-yl dodecanoylalaninate]",,Radical Scavenging Activity: IC50 [2]: 2.42 ± 0.06 µg/mL; IC50 (Escherichia coli): 34 ± 3 mM
6000,43,14,890,"CCCCCCCC(=O)OC1Cc2c(O)cc(O)cc2OC1c1ccc(O)c(O)c1 (stereo not shown) [6a, 2-(3,4-Dihydroxyphenyl)-5,7-dihydroxychroman-3-yl octanoate]",,
240,42,29,10,"CCCCCCCCCCCCCCCC(=O)OC1Cc2c(O)cc(O)cc2OC1c1ccc(O)c(O)c1 (stereo not shown) [6d, 2-(3,4-Dihydroxyphenyl)-5,7-dihydroxychroman-3-yl hexadecanoate]",,
4800,41,23,590,"CCCCCCCCCCCCCC(=O)OC1Cc2c(O)cc(O)cc2OC1c1ccc(O)c(O)c1 (stereo not shown) [6c, 2-(3,4-Dihydroxyphenyl)-5,7-dihydroxychroman-3-yl tetradecanoate]",,
4800,49,17,680,"CCCCCCCCCCCC(=O)OC1Cc2c(O)cc(O)cc2OC1c1ccc(O)c(O)c1 (stereo not shown) [6b, 2-(3,4-Dihydroxyphenyl)-5,7-dihydroxychroman-3-yl dodecanoate]",,
580,33,19,40,"CCCCCCCCCCCCCC(=O)N[C@@H](C)C(=O)OC1Cc2c(O)cc(O)cc2OC1c1ccc(O)c(O)c1 (stereo partly shown) [7c, 2-(3,4-Dihydroxyphenyl)-5,7-dihydroxychroman-3-yl tetradecanoylalaninate]",,Radical Scavenging Activity: IC50 [2]: 2.01 ± 0.05 µg/mL; IC50 (Escherichia coli): 23 ± 1 mM
